Read-outs that look alike come from different tables or passages of the source.
Legend:
Test in all cases: Glasshouse assay for herbicidal activity (pre- and post-emergence), percentage phytotoxicity
Type in all cases: in vivo
[1] = system: Alopecurus myosuroides (ALOMY); conditions: Alopecurus myosuroides
Method in brief: (§1)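 Seeds were sown in standard soil in pots and grown one day (pre-emergence) or about 12 days (post-emergence) before herbicide application. Plants were kept at 24/18 °C (warm-climate) or 20/16 °C (cool-climate) day/night, 16 h light, 65% humidity, watered twice daily, and damage was scored visually at 15 DAA (POST) or 20 DAA (PRE).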

Avena fatua (AVEFA) = conditions: Avena fatua
Method in brief: as §1

[2] = system: Echinochloa crus-galli (ECHCG); conditions: Echinochloa crus-galli
Method in brief: as §1

Lolium perenne (LOLPE) = conditions: Lolium perenne
Method in brief: as §1

[3] = post-emergence, 360 h, POST-emergence, rate 250 g/ha, visual score 15 DAA (100%=total damage, 0%=no damage), read-out: Post-emergence herbicidal activity (percentage phytotoxicity) ALOMY POST
[4] = pre-emergence, 480 h, PRE-emergence, rate 250 g/ha, visual score 20 DAA (100%=total damage, 0%=no damage), read-out: Pre-emergence herbicidal activity (percentage phytotoxicity) ALOMY PRE
[5] = post-emergence, 360 h, POST-emergence, rate 250 g/ha, visual score 15 DAA (100%=total damage, 0%=no damage), read-out: Post-emergence herbicidal activity (percentage phytotoxicity) AVEFA POST
[6] = pre-emergence, 480 h, PRE-emergence, rate 250 g/ha, visual score 20 DAA (100%=total damage, 0%=no damage), read-out: Pre-emergence herbicidal activity (percentage phytotoxicity) AVEFA PRE
[7] = post-emergence, 360 h, POST-emergence, rate 250 g/ha, visual score 15 DAA (100%=total damage, 0%=no damage), read-out: Post-emergence herbicidal activity (percentage phytotoxicity) ECHCG POST
[8] = pre-emergence, 480 h, PRE-emergence, rate 250 g/ha, visual score 20 DAA (100%=total damage, 0%=no damage), read-out: Pre-emergence herbicidal activity (percentage phytotoxicity) ECHCG PRE
[9] = post-emergence, 360 h, POST-emergence, rate 250 g/ha, visual score 15 DAA (100%=total damage, 0%=no damage), read-out: Post-emergence herbicidal activity (percentage phytotoxicity) LOLPE POST
[10] = pre-emergence, 480 h, PRE-emergence, rate 250 g/ha, visual score 20 DAA (100%=total damage, 0%=no damage), read-out: Pre-emergence herbicidal activity (percentage phytotoxicity) LOLPE PRE

C/C=C/c1cc(C)c(C2C(=O)CC(CC(=O)NCc3cccc(F)c3)C2=O)c(C)c1 (stereo not shown) [Compound B242]
pest or weed control at 250 g/ha [1, 3]: 90%
pest or weed control at 250 g/ha [1, 4]: 0%
pest or weed control at 250 g/ha (Avena fatua (AVEFA); [5]): 90%
pest or weed control at 250 g/ha (Avena fatua (AVEFA); [6]): 0%
pest or weed control at 250 g/ha [2, 7]: 100%
pest or weed control at 250 g/ha [2, 8]: 0%
pest or weed control at 250 g/ha (Lolium perenne (LOLPE); [9]): 100%
pest or weed control at 250 g/ha (Lolium perenne (LOLPE); [10]): 0%

C#CC(C)(C)NC(=O)CC1CC(=O)C(c2c(C)cc(-c3ncc(F)cn3)cc2C)C1=O (stereo not shown) [Compound B113]
pest or weed control at 250 g/ha ([1]; post-emergence, 360 h, 250 g/ha, post-emergence, 15 DAA, visual assessment (100%=total damage, 0%=no damage), read-out: Post-emergence herbicidal activity (percentage phytotoxicity) ALOMY POST): 100%
pest or weed control at 250 g/ha ([1]; pre-emergence, 480 h, 250 g/ha, pre-emergence, 20 DAA, visual assessment (100%=total damage, 0%=no damage), read-out: Pre-emergence herbicidal activity (percentage phytotoxicity) ALOMY PRE): 90%
pest or weed control at 250 g/ha (Avena fatua (AVEFA); post-emergence, 360 h, 250 g/ha, post-emergence, 15 DAA, visual assessment (100%=total damage, 0%=no damage), read-out: Post-emergence herbicidal activity (percentage phytotoxicity) AVEFA POST): 100%
pest or weed control at 250 g/ha (Avena fatua (AVEFA); pre-emergence, 480 h, 250 g/ha, pre-emergence, 20 DAA, visual assessment (100%=total damage, 0%=no damage), read-out: Pre-emergence herbicidal activity (percentage phytotoxicity) AVEFA PRE): 90%
pest or weed control at 250 g/ha ([2]; post-emergence, 360 h, 250 g/ha, post-emergence, 15 DAA, visual assessment (100%=total damage, 0%=no damage), read-out: Post-emergence herbicidal activity (percentage phytotoxicity) ECHCG POST): 100%
pest or weed control at 250 g/ha ([2]; pre-emergence, 480 h, 250 g/ha, pre-emergence, 20 DAA, visual assessment (100%=total damage, 0%=no damage), read-out: Pre-emergence herbicidal activity (percentage phytotoxicity) ECHCG PRE): 100%
pest or weed control at 250 g/ha (Lolium perenne (LOLPE); post-emergence, 360 h, 250 g/ha, post-emergence, 15 DAA, visual assessment (100%=total damage, 0%=no damage), read-out: Post-emergence herbicidal activity (percentage phytotoxicity) LOLPE POST): 100%
pest or weed control at 250 g/ha (Lolium perenne (LOLPE); pre-emergence, 480 h, 250 g/ha, pre-emergence, 20 DAA, visual assessment (100%=total damage, 0%=no damage), read-out: Pre-emergence herbicidal activity (percentage phytotoxicity) LOLPE PRE): 90%

Cc1cc(-n2cc(Cl)cn2)cc(C)c1C1C(=O)CC(CC(=O)NC(C)C)C1=O (stereo not shown) [Compound A74]
pest or weed control at 250 g/ha ([1]; post-emergence, 360 h, Rate 250 g/ha, post-emergence, assessed visually 15 DAA, 100%=total damage, 0%=no damage, read-out: Post-emergence herbicidal activity (percentage phytotoxicity) ALOMY POST): 100%
pest or weed control at 250 g/ha ([1]; pre-emergence, 480 h, Rate 250 g/ha, pre-emergence, assessed visually 20 DAA, 100%=total damage, 0%=no damage, read-out: Pre-emergence herbicidal activity (percentage phytotoxicity) ALOMY PRE): 100%
pest or weed control at 250 g/ha (Avena fatua (AVEFA); post-emergence, 360 h, Rate 250 g/ha, post-emergence, assessed visually 15 DAA, 100%=total damage, 0%=no damage, read-out: Post-emergence herbicidal activity (percentage phytotoxicity) AVEFA POST): 100%
pest or weed control at 250 g/ha (Avena fatua (AVEFA); pre-emergence, 480 h, Rate 250 g/ha, pre-emergence, assessed visually 20 DAA, 100%=total damage, 0%=no damage, read-out: Pre-emergence herbicidal activity (percentage phytotoxicity) AVEFA PRE): 90%
pest or weed control at 250 g/ha ([2]; post-emergence, 360 h, Rate 250 g/ha, post-emergence, assessed visually 15 DAA, 100%=total damage, 0%=no damage, read-out: Post-emergence herbicidal activity (percentage phytotoxicity) ECHCG POST): 100%
pest or weed control at 250 g/ha ([2]; pre-emergence, 480 h, Rate 250 g/ha, pre-emergence, assessed visually 20 DAA, 100%=total damage, 0%=no damage, read-out: Pre-emergence herbicidal activity (percentage phytotoxicity) ECHCG PRE): 100%
pest or weed control at 250 g/ha (Lolium perenne (LOLPE); post-emergence, 360 h, Rate 250 g/ha, post-emergence, assessed visually 15 DAA, 100%=total damage, 0%=no damage, read-out: Post-emergence herbicidal activity (percentage phytotoxicity) LOLPE POST): 90%
pest or weed control at 250 g/ha (Lolium perenne (LOLPE); pre-emergence, 480 h, Rate 250 g/ha, pre-emergence, assessed visually 20 DAA, 100%=total damage, 0%=no damage, read-out: Pre-emergence herbicidal activity (percentage phytotoxicity) LOLPE PRE): 90%

Cc1cc(-c2ccc(F)cn2)cc(C)c1C1C(=O)CC(CC(=O)N(C)C(C)C)C1=O (stereo not shown) [Compound B396]
pest or weed control at 250 g/ha ([1]; post-emergence, 360 h, Rate 250 g/ha, post-emergence, visual assessment 15 DAA, 100%=total damage, 0%=no damage, read-out: Post-emergence herbicidal activity (percentage phytotoxicity) ALOMY POST): 90%
pest or weed control at 250 g/ha ([1]; pre-emergence, 480 h, Rate 250 g/ha, pre-emergence, visual assessment 20 DAA, 100%=total damage, 0%=no damage, read-out: Pre-emergence herbicidal activity (percentage phytotoxicity) ALOMY PRE): 100%
pest or weed control at 250 g/ha (Avena fatua (AVEFA); post-emergence, 360 h, Rate 250 g/ha, post-emergence, visual assessment 15 DAA, 100%=total damage, 0%=no damage, read-out: Post-emergence herbicidal activity (percentage phytotoxicity) AVEFA POST): 100%
pest or weed control at 250 g/ha (Avena fatua (AVEFA); pre-emergence, 480 h, Rate 250 g/ha, pre-emergence, visual assessment 20 DAA, 100%=total damage, 0%=no damage, read-out: Pre-emergence herbicidal activity (percentage phytotoxicity) AVEFA PRE): 100%
pest or weed control at 250 g/ha ([2]; post-emergence, 360 h, Rate 250 g/ha, post-emergence, visual assessment 15 DAA, 100%=total damage, 0%=no damage, read-out: Post-emergence herbicidal activity (percentage phytotoxicity) ECHCG POST): 100%
pest or weed control at 250 g/ha ([2]; pre-emergence, 480 h, Rate 250 g/ha, pre-emergence, visual assessment 20 DAA, 100%=total damage, 0%=no damage, read-out: Pre-emergence herbicidal activity (percentage phytotoxicity) ECHCG PRE): 100%
pest or weed control at 250 g/ha (Lolium perenne (LOLPE); post-emergence, 360 h, Rate 250 g/ha, post-emergence, visual assessment 15 DAA, 100%=total damage, 0%=no damage, read-out: Post-emergence herbicidal activity (percentage phytotoxicity) LOLPE POST): 90%
pest or weed control at 250 g/ha (Lolium perenne (LOLPE); pre-emergence, 480 h, Rate 250 g/ha, pre-emergence, visual assessment 20 DAA, 100%=total damage, 0%=no damage, read-out: Pre-emergence herbicidal activity (percentage phytotoxicity) LOLPE PRE): 100%

C=CC(C)NC(=O)CC1CC(=O)C(c2c(C)cc(-c3ncc(Cl)cc3F)cc2C)C1=O (stereo not shown) [Compound B300]
pest or weed control at 250 g/ha [1, 3]: 100%
pest or weed control at 250 g/ha [1, 4]: 100%
pest or weed control at 250 g/ha (Avena fatua (AVEFA); [5]): 100%
pest or weed control at 250 g/ha (Avena fatua (AVEFA); [6]): 100%
pest or weed control at 250 g/ha [2, 7]: 100%
pest or weed control at 250 g/ha [2, 8]: 100%
pest or weed control at 250 g/ha (Lolium perenne (LOLPE); [9]): 100%
pest or weed control at 250 g/ha (Lolium perenne (LOLPE); [10]): 100%
